According to ChEMBL document CHEMBL5550219, “Distinct Amino Acid-Based PROTACs Target Oncogenic Kinases for Degradation in Non-Small Cell Lung Cancer (NSCLC)” (J Med Chem, 2024):
Activity calls are given as the source filed them. The rule behind the calls is not given here.

Tests used:
NCI-H1975 [1] = assay: Induction of cell cycle arrest at G1 phase in human NCI-H1975 cells at 20 uM incubated for 72 hrs by flow cytometry (reference value: 44.5 +/- 1.5 %); assay type: functional
[2] = Tmax in mouse at 2 mg/kg, iv measured for 12 hrs by HPLC analysis; assay type: ADME, organism-based; conditions: in vivo
NCI-H3122 [3] = assay: Induction of cell cycle arrest at G1 phase in human NCI-H3122 cells at 10 uM incubated for 48 hrs by flow cytometry (reference value: 64.9 +/- 0.6 %); assay type: functional
NCI-H3122 [4] = assay: Induction of cell cycle arrest at G2 phase in human NCI-H3122 cells at 5 uM incubated for 48 hrs by flow cytometry (reference value: 9.4 +/- 0.5 %); assay type: functional
NCI-H3122 [5] = assay: Induction of cell cycle arrest at S phase in human NCI-H3122 cells at 10 uM incubated for 48 hrs by flow cytometry (reference value: 25.7 +/- 0.4 %); assay type: functional
[6] = AUC (0 to t) in mouse at 50 mg/kg, ip measured for 12 hrs by HPLC analysis; assay type: ADME, organism-based; conditions: in vivo
SH-SY5Y = assay: Effect on ALK F1174L mutant in human SH-SY5Y cells upto 20 uM incubated for 48 hrs by immunoblot analysis; assay type: functional, cell-based
[7] = […] measured for 12 hrs by HPLC analysis; assay type: ADME, organism-based; conditions: in vivo
NCI-H3122 [8] = assay: Induction of cell cycle arrest at G1 phase in human NCI-H3122 cells at 5 uM incubated for 48 hrs by flow cytometry (reference value: 64.9 +/- 0.6 %); assay type: functional
[9] = AUC (0 to t) in mouse at 2 mg/kg, iv measured for 12 hrs by HPLC analysis; assay type: ADME, organism-based; conditions: in vivo
NCI-H3122 [10] = assay: Induction of cell cycle arrest at S phase in human NCI-H3122 cells at 5 uM incubated for 48 hrs by flow cytometry (reference value: 25.7 +/- 0.4 %); assay type: functional
NCI-H1975 [11] = assay: Induction of apoptosis in human NCI-H1975 cells assessed as increase in late apoptotic cells incubated for 72 hrs by Annexin V-FITC/PI staining based flow cytometry; assay type: functional, cell-based; conditions: dose 10-20 µM
[12] = Cmax in mouse at 50 mg/kg, ip measured for 12 hrs by HPLC analysis; assay type: ADME, organism-based; conditions: in vivo
NCI-H3122 [13] = assay: Induction of cell cycle arrest at G2 phase in human NCI-H3122 cells at 10 uM incubated for 48 hrs by flow cytometry (reference value: 9.4 +/- 0.5 %); assay type: functional
NCI-H1975 [14] = assay: Induction of cell cycle arrest at S phase in human NCI-H1975 cells at 20 uM incubated for 72 hrs by flow cytometry (reference value: 12.1 +/- 0.7 %); assay type: functional
[15] = Cmax in mouse at 2 mg/kg, iv measured for 12 hrs by HPLC analysis; assay type: ADME, organism-based; conditions: in vivo
HEK-293T = assay: Inhibition of cell viability in HEK293T cells upto 20 uM incubated for 48 hrs by CCK8 assay; assay type: toxicity, cell-based; conditions: human
NCI-H1975 [16] = assay: Induction of cell cycle arrest at G2 phase in human NCI-H1975 cells at 10 uM incubated for 72 hrs by flow cytometry (reference value: 43.4 +/- 1.5 %); assay type: functional
NCI-H1975 [17] = assay: Induction of cell cycle arrest at G2 phase in human NCI-H1975 cells at 20 uM incubated for 72 hrs by flow cytometry (reference value: 43.4 +/- 1.5 %); assay type: functional
NCI-H3122 [18] = assay: Inhibition of cell viability in human NCI-H3122 cells harboring sgGID4 incubated for 48 hrs by CCK8 assay; assay type: functional, cell-based
[19] = Half life in mouse at 50 mg/kg, ip measured for 12 hrs by HPLC analysis; assay type: ADME, organism-based; conditions: in vivo
SK-N-BE(2) = assay: Effect on wild-type ALK in human SK-N-BE(2) cells upto 20 uM incubated for 48 hrs by immunoblot analysis; assay type: functional, cell-based
PC-9 = assay: Effect on EGFR del19 mutant expression in human PC-9 cells upto 20 uM incubated for 72 hrs by immunoblot analysis; assay type: functional, cell-based
NCI-H1975 [20] = assay: Induction of cell cycle arrest at G1 phase in human NCI-H1975 cells at 10 uM incubated for 72 hrs by flow cytometry (reference value: 44.5 +/- 1.5 %); assay type: functional
NCI-H3122 [21] = assay: Induction of apoptosis in human NCI-H3122 cells assessed as increase in late apoptotic cells incubated for 48 hrs by Annexin V-FITC/PI staining based flow cytometry; assay type: functional, cell-based; conditions: dose 5-10 µM
NCI-H1975 [22] = assay: Induction of apoptosis in human NCI-H1975 cells assessed as increase in early apoptotic cells incubated for 72 hrs by Annexin V-FITC/PI staining based flow cytometry; assay type: functional, cell-based; conditions: dose 10-20 µM
[23] = Half life in mouse at 2 mg/kg, iv measured for 12 hrs by HPLC analysis; assay type: ADME, organism-based; conditions: in vivo
NCI-H1975 [24] = assay: Induction of cell cycle arrest at S phase in human NCI-H1975 cells at 10 uM incubated for 72 hrs by flow cytometry (reference value: 12.1 +/- 0.7 %); assay type: functional
A549 = assay: Effect on wild-type EGFR expression in human A549 cells upto 20 uM incubated for 72 hrs by immunoblot analysis; assay type: functional, cell-based
NCI-H1975 [25] = assay: Inhibition of cell viability in human NCI-H1975 cells incubated for 48 to 72 hrs by CCK8 assay
NCI-H3122 [26] = assay: Inhibition of cell viability in human NCI-H3122 cells incubated for 48 to 72 hrs by CCK8 assay
NCI-H1975 [27] = assay: Inhibition of cell viability in human NCI-H1975 cells harboring sgGID4 incubated for 72 hrs by CCK8 assay; assay type: functional, cell-based
NCI-H1299 = assay: Effect on wild-type EGFR expression in human NCI-H1299 cells upto 20 uM incubated for 72 hrs by immunoblot analysis; assay type: functional, cell-based
NCI-H3122 [28] = assay: Induction of apoptosis in human NCI-H3122 cells assessed as increase in early apoptotic cells incubated for 48 hrs by Annexin V-FITC/PI staining based flow cytometry; assay type: functional, cell-based; conditions: dose 5-10 µM
[29] = Tmax in mouse at 50 mg/kg, ip measured for 12 hrs by HPLC analysis; assay type: ADME, organism-based; conditions: in vivo

Tmax [2]: 4.98 min
AUC(0-t) at 12 h [6]: 80800 ng·h/mL
bioavailability [7]: 53.2%
AUC(0-t) at 12 h [9]: 6080 ng·h/mL
Cmax [12]: 33000 ng/mL
Cmax [15]: 3720 ng/mL
half-life [19]: 311 min
half-life [23]: 172 min
IC50 (NCI-H1975 [25]): 8.8 µM
IC50 (NCI-H3122 [26]): 160 nM
Tmax [29]: 30 min
SMILES: COc1cc(N2CCN(C(=O)CCOCCOCCOCCNC(=O)[C@@H]3CCCN3)CC2)ccc1Nc1ncc(Cl)c(Nc2ccccc2P(C)(C)=O)n1
Activity (NCI-H1975 [1]): 78.4%
Activity (NCI-H3122 [3]): 90.4%
Activity (NCI-H3122 [4]): 8.1%
Activity (NCI-H3122 [5]): 3.9%
Activity (SH-SY5Y): inactive
Activity (NCI-H3122 [8]): 84.2%
Activity (NCI-H3122 [10]): 7.3%
Activity (NCI-H1975 [11]): Dose-Dependent Effect
Activity (NCI-H3122 [13]): 5.5%
Activity (NCI-H1975 [14]): 5.7%
Activity (HEK-293T): Non-Toxic
Activity (NCI-H1975 [16]): 32.5%
Activity (NCI-H1975 [17]): 15.9%
inhibition (NCI-H3122 [18]): inactive
Activity (SK-N-BE(2)): inactive
Activity (PC-9): inactive
Activity (NCI-H1975 [20]): 57.3%
Activity (NCI-H3122 [21]): Dose-Dependent Effect
Activity (NCI-H1975 [22]): Dose-Dependent Effect
Activity (NCI-H1975 [24]): 10.2%
Activity (A549): inactive
inhibition (NCI-H1975 [27]): inactive
Activity (NCI-H1299): inactive
Activity (NCI-H3122 [28]): Dose-Dependent Effect
